Laboratory results: PubChem BioAssay (NCI)
Several values for one entry are separate records, joined by “and”; a condition that tells them apart may be missing. Identical values can stand only once.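 1) Cells in 96-well plates. 2) Compound, 48 h, 5 concentrations. 3) Linear interpolation between surrounding doses. 4) Unreached endpoint = highest concentration. Here, GI50 denotes the concentration required for 50% inhibition of growth. TGI: concentration producing complete growth inhibition.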

Tests used:
Assay in all cases: NCI-60 cell line screen, 48 h
MALME-3M melanoma = tested on: MALME-3M melanoma
SK-MEL-28 melanoma = tested on: SK-MEL-28 melanoma
COLO 205 colon = tested on: COLO 205 colon
T-47D breast = tested on: T-47D breast
EKVX NSCLC = tested on: EKVX NSCLC
UACC-257 melanoma = tested on: UACC-257 melanoma
SF-295 CNS = tested on: SF-295 CNS
SK-MEL-2 melanoma = tested on: SK-MEL-2 melanoma
ACHN renal = tested on: ACHN renal
RXF 393 renal = tested on: RXF 393 renal

SMILES	TGI (MALME-3M melanoma)	GI50 (SK-MEL-28 melanoma)	TGI (SK-MEL-28 melanoma)	GI50 (COLO 205 colon)	TGI (COLO 205 colon)	GI50 (T-47D breast)	TGI (T-47D breast)	GI50 (EKVX NSCLC)	TGI (EKVX NSCLC)	GI50 (UACC-257 melanoma)	TGI (UACC-257 melanoma)	GI50 (SF-295 CNS)	TGI (SF-295 CNS)	TGI (SK-MEL-2 melanoma)	GI50 (ACHN renal)	TGI (ACHN renal)	TGI (RXF 393 renal)
COC(=O)c1ccc2c(c1)CCN2C(=O)c1cc2c(cc1Br)OCO2	50 µM	19.2 µM	50 µM and > 100 µM	1.13 µM	2.62 µM and 3.9 µM	0.982 µM	50 µM and 51.9 µM	3.77 µM	50 µM and > 100 µM	16.6 µM	18.8 µM and 75.1 µM	0.683 µM	50 µM and > 100 µM	5.7 µM and 36.4 µM	6.56 µM	49.3 µM and > 100 µM	4.72 µM
CS(=O)(=O)c1ccc(C2=C(c3ccccc3)C(=O)OC2)cc1	> 100 µM	–	> 100 µM	–	> 100 µM	–	> 100 µM	–	> 100 µM	–	> 100 µM	–	> 100 µM	> 100 µM	–	> 100 µM	> 100 µM
COc1ccc(/C=C/C=C2C(=O)NC(=S)NC2=O)cc1	14.1 µM	–	3.45 µM	–	13.5 µM	–	> 100 µM	–	25.7 µM	–	22 µM	–	29.9 µM	35.3 µM	–	16.7 µM	16.8 µM
